Among the data in patent US9216980B2, “Methods of use of diazacarbazoles for treating cancer” (Genentech, Inc., priority 2008, dated 2015) are EC50 values, retold here.

Structures are written as SMILES.

The subject of this assay is HT-29. Briefly: Cellular assay (checkpoint abrogation), phospho-Histone H3. The assay is classed as cell-based. The note with it: Homo sapiens; HT-29 cells, 20 nM SN-38 for 16 h, then 300 nM nocodazole plus compound for 24 h; phospho-Histone H3 levels; read-out: EC50 in the assay described in EXAMPLE ii. On the procedure: Compounds are tested in a cellular assay using the human colorectal adenocarcinoma derived cell line HT-29 (ATCC HTB-38).
The cell line is maintained in DMEM/F12 (1:1) media (Invitrogen Gibco, #31331) supplemented with 10% FCS at 37° C. in a 5% CO2 humidified incubator.
Cells are seeded in 96-well plates at 30,000 cells/well and after 24 h they are exposed to 20 nM SN-38 in 0.4% DMSO. One column of 8 wells on each plate was used to generate a maximum signal control. These cells are treated with 0.4% DMSO without SN-38. Cells are grown for a further 16 h, then the media containing DMSO plus or minus SN-38 is removed and replaced with media containing 300 nM nocodazole alone (to determine baseline) or in combination with ten concentrations of chk1 inhibitor (final DMSO concentration is 0.4%). Cells are grown for a further 24 h. The media is removed and replaced with 50 μl lysis buffer containing protease inhibitors and phosphatase inhibitors. This buffer contains detergent to bring about cellular disruption. […] Following the transfer of lysate to the MSD plate, Histone H3 in the lysate is captured on the coated antibody by incubation at room temperature for 2 h. Following the capture step the plate is washed and then incubated with an antibody to phosphorylated Histone H3 which is conjugated with a Sulfo-Tag. This tag gives a signal when in proximity to the electrode on the base of the MSD plate. Binding the tagged antibody to the captured protein allow detection on a MSD reader.
EC50 values are calculated using the XLfit software package (version 2.0.5) or Graphpad Prism, (version 3.03) fitting a sigmoidal curve with a variable slope.

As to `CN1CCC(c2ccc(-c3cnc4[nH]c5cnc(C#N)cc5c4c3)cc2)CC1` [Example 1, 3-[4-(1-Methyl-piperidin-4-yl)-phenyl]-9H-dipyrido[2,3-b;4′,3′-d]pyrrole-6-carbonitrile], the EC50 was less than 10 µM. As for `Cn1ccc(-c2cnc3[nH]c4cnc(C#N)cc4c3c2)n1` [Example 80, 3-(1-Methyl-1H-pyrazol-3-yl)-9H-dipyrido[2,3-b;4′,3′-d]pyrrole-6-carbonitrile], the 50% effective concentration (EC50) was less than 10 µM. Take `N#Cc1cc2c(cn1)[nH]c1ncc(C#CC3CCCNC3)cc12` (centres unmarked) [Example 119, 3-Piperidin-3-ylethynyl-9H-dipyrido[2,3-b;4′,3′-d]pyrrole-6-carbonitrile]: the EC50 was less than 10 µM.

`CN1CCN(c2ccc(-c3cnc4[nH]c5cnc(C#N)cc5c4c3)cc2)CC1` [Example 125, 3-[4-(4-Methyl-piperazin-1-yl)-phenyl]-9H-dipyrido[2,3-b;4′,3′-d]pyrrole-6-carbonitrile]: the EC50 was less than 10 µM. Turning to `N#Cc1cc2c(cn1)[nH]c1ncc(-c3cnn(CCN4CCOCC4)c3)cc12` [Example 127, 3-[1-(2-Morpholin-4-yl-ethyl)-1H-pyrazol-4-yl]-9H-dipyrido[2,3-b;4′,3′-d]pyrrole-6-carbonitrile], the EC50 is less than 10 µM.

With `CC(C)Oc1ccc(-c2cnc3[nH]c4cnc(C#N)cc4c3c2)cc1` [Example 135, 3-(4-Isopropoxy-phenyl)-9H-dipyrido[2,3-b;4′,3′-d]pyrrole-6-carbonitrile], the EC50 is less than 10 µM.

`CC(=O)Nc1cccc(-c2cnc3[nH]c4cnc(C#N)cc4c3c2)c1` [Example 138, N-[3-(6-Cyano-9H-dipyrido[2,3-b;4′,3′-d]pyrrol-3-yl)-phenyl]-acetamide]: the 50% effective concentration (EC50) is less than 10 µM. Regarding `N#Cc1cc2c(cn1)[nH]c1ncc(-c3ccc(CO)cc3)cc12` [Example 157, 3-(4-Hydroxymethyl-phenyl)-9H-dipyrido[2,3-b;4′,3′-d]pyrrole-6-carbonitrile], the half-maximal effective concentration (EC50) was less than 10 µM. Regarding `N#Cc1cc2c(cn1)[nH]c1ncc(-c3cccs3)cc12` [Example 160, 3-Thiophen-2-yl-9H-dipyrido[2,3-b;4′,3′-d]pyrrole-6-carbonitrile], the concentration for a half-maximal effect (EC50) is less than 10 µM. In the case of `N#Cc1cc2c(cn1)[nH]c1ncc(-c3cccc(N)c3)cc12` [Example 166, 3-(3-Amino-phenyl)-9H-dipyrido[2,3-b;4′,3′-d]pyrrole-6-carbonitrile] it was less than 10 µM; in that of `COc1ccc(-c2cnc3[nH]c4cnc(C#N)cc4c3c2)cc1OC` [Example 176, 9H-dipyrido[2,3-b;4′,3′-d]pyrrole-6-carbonitrile], less than 10 µM. Consider `CC(=O)Nc1ccc(-c2cnc3[nH]c4cnc(C#N)cc4c3c2)cc1` [Example 186, N-[4-(6-Cyano-9H-dipyrido[2,3-b;4′,3′-d]pyrrol-3-yl)-phenyl]-acetamide], for which the 50% effective concentration (EC50) was less than 10 µM. With `CS(=O)(=O)c1cccc(-c2cnc3[nH]c4cnc(C#N)cc4c3c2)c1` [Example 188, 3-(3-Methanesulfonyl-phenyl)-9H-dipyrido[2,3-b;4′,3′-d]pyrrole-6-carbonitrile], the EC50 is less than 10 µM. `CN(C)S(=O)(=O)c1cccc(-c2cnc3[nH]c4cnc(C#N)cc4c3c2)c1` [Example 190, 3-(6-Cyano-9H-dipyrido[2,3-b;4′,3′-d]pyrrol-3-yl)-N,N-dimethyl-benzenesulfonamide]: the EC50 was less than 10 µM. `N#Cc1cc2c(cn1)[nH]c1ncc(Cl)cc12` [Example 214, 3-Chloro-9H-dipyrido[2,3-b;4′,3′-d]pyrrole-6-carbonitrile]: the 50% effective concentration (EC50) is less than 10 µM. Regarding `c1cn(-c2cc3c(cn2)[nH]c2ncc(-c4ccc(CN5CCCCC5)cc4)cc23)cn1` [Example 366, 3-(4-Piperidin-1-ylmethyl-phenyl)-6-(1H-imidazol-1-yl)-9H-dipyrido[2,3-b;4′,3′-d]pyrrole], the EC50 is less than 10 µM. Regarding `Cn1nncc1-c1cc2c(cn1)[nH]c1ncc(-c3ccc(CN4CCCCC4)cc3)cc12` [Example 368, 6-(1-Methyl-1H-1,2,3-triazol-5-yl)-3-(4-piperidin-1-ylmethyl-phenyl)-9H-dipyrido[2,3-b;4′,3′-d]pyrrole], the EC50 is less than 10 µM.

A word on the EC50: it is the concentration at which the effect is half-maximal.
